Patent US9487513B2, “Substituted pyrazolo[1,5-A]pyridines, their preparation and use as medicaments” (LABORATORIOS DEL DR. ESTEVE S.A., priority 2012, dated 2016)
Structures can show the parent of a compound that is named as a salt.

These compounds were tested against T1, σ1-receptor (Cavia porcellus, UniProt Q60492) (assay: σ1-receptor binding assay, [3H]-(+)-pentazocine, guinea pig brain membranes). Details: radioligand [3H]-(+)-pentazocine at 5.0 nM; guinea pig brain membrane; 150 min at 37° C.; nonspecific binding with 1 μM haloperidol.
T1 construct: Guinea pig brains were homogenized in 10 vols; (w/v) of Tris-HCl 50 mM 0.32 M sucrose; from tissue; host or cells: guinea pig brain membranes
Procedure: Brain membrane preparation and binding assays for the σ1-receptor were performed as described (DeHaven-Hudkins, D. L., L. C. Fleissner, and F. Y. Ford-Rice, 1992, Characterization of the binding of [^3H](+)pentazocine to σ recognition sites in guinea pig brain, Eur. J. Pharmacol. 227, 371-378) with some modifications. Guinea pig brains were homogenized in 10 vols. (w/v) of Tris-HCl 50 mM 0.32 M sucrose, pH 7.4, with a Kinematica Polytron PT 3000 at 15000 r.p.m. for 30 s. The homogenate was centrifuged at 1000 g for 10 min at 4° C. and the supernatants collected and centrifuged again at 48000 g for 15 min at 4° C. The pellet was resuspended in 10 volumes of Tris-HCl buffer (50 mM, pH 7.4), incubated at 37° C. for 30 min, and centrifuged at 48000 g for 20 min at 4° C. Following this, the pellet was re-suspended in fresh Tris-HCl buffer (50 mM, pH 7.4) and stored on ice until use.
The radioligand used was [^3H]-(+)-pentazocine at 5.0 nM and the final volume was 200 μl. The incubation was initiated with the addition of 100 μl of membrane at a final tissue concentration of approximately 5 mg tissue net weight/mL and the incubation time was 150 m. at 37° C. After incubation, the membranes were collected onto pretreated glass fiber filterplate (MultiScreen-FC, Millipore), with polyethylenimine 0.1%. The filters were washed two times with 200 μl of washing buffer (50 mM Tris Cl, pH=7.4) and then 25 μl of Ecoscint H liquid scintillation cocktail were added. Microplates were allowed to set for several hours and then quantified by liquid scintillation spectrophotometry (1450 Microbeta, Wallac). Nonspecific binding was determined with 1 μM haloperidol.

T1 sequence (Q60492 whole entry): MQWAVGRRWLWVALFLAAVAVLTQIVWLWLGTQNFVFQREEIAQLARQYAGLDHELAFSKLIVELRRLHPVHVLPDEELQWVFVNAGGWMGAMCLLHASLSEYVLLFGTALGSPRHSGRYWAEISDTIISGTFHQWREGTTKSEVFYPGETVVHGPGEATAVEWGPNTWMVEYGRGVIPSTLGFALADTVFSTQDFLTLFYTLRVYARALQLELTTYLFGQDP

Going from CC(C)(C)C1CCN(CCCCOCc2cc3ccccn3n2)CC1 [Example 1, 2-((4-(4-tert-butylpiperidin-1-yl)butoxy)methyl)pyrazolo[1,5-a]pyridine maleate] to CC(C)(C)C1CCN(CCCCOc2cc3ccccn3n2)CC1 [Example 30, 2-(4-(4-tert-butylpiperidin-1-yl)butoxy)pyrazolo[1,5-a]pyridine hydrochloride], the Ki falls from 16.3 nM to 6.2 nM (2.6-fold). The second binds more tightly here.

Going from c1ccn2nc(COCCN3CCCCCC3)cc2c1 [Example 2, 2-((2-(azepan-1-yl)ethoxy)methyl)pyrazolo[1,5-a]pyridine maleate] to c1ccn2nc(COCCCCN3CCCCCC3)cc2c1 [Example 8, 2-((4-(azepan-1-yl)butoxy)methyl)pyrazolo[1,5-a]pyridine maleate], the Ki falls from 37.6 nM to 22.2 nM (1.7-fold). The second binds more tightly here.

Going from CCCN(CCCCOCc1cc2ccccn2n1)CC1CC1 [Example 3, N-(cyclopropylmethyl)-N-propyl-4-(pyrazolo[1,5-a]pyridin-2-ylmethylpyrazolo[1,5-a]pyridin-2-ylmethoxy)butan-1-amine maleate] to CCCN(CCCCOc1cc2ccccn2n1)CC1CC1 [Example 35, N-(cyclopropylmethyl)-N-propyl-4-(pyrazolo[1,5-a]pyridin-2-yloxy)butan-1-amine maleate], the Ki falls from 90.1 nM to 10.6 nM (8.5-fold).

Compared with c1ccc2c(c1)CCN(CCCCOCc1cc3ccccn3n1)C2 [Example 4, maleate], c1ccc2c(c1)CCN(CCCCOc1cc3ccccn3n1)C2 [Example 36, 2-(4-(pyrazolo[1,5-a]pyridin-2-yloxy)butyl)-1,2,3,4-tetrahydroisoquinoline maleate] is 2.4-fold lower in Ki: 48 nM for the first, 20 nM for the second.

Going from c1ccn2nc(COCCCCNC34CC5CC(CC(C5)C3)C4)cc2c1 [Example 5, N-adamantyl-4-(pyrazolo[1,5-a]pyridin-2-ylmethylpyrazolo[1,5-a]pyridin-2-ylmethoxy)butan-1-amine maleate] to c1ccn2nc(OCCCCNC34CC5CC(CC(C5)C3)C4)cc2c1 [Example 37, N-adamantyl-4-(pyrazolo[1,5-a]pyridin-2-yloxy)-butan-1-amine maleate], the Ki falls from 42.3 nM to 14.2 nM (3-fold).

Going from c1ccc2c(c1)COC21CCN(CCCCOCc2cc3ccccn3n2)CC1 [Example 6, 1′-(4-(pyrazolo[l,5-a]pyridin-2-ylmethylpyrazolo[1,5-a]pyridin-2-ylmethoxy)butyl)-3H-spiro[isobenzofuran-1,4′-piperidine] maleate] to c1ccc2c(c1)COC21CCN(CCCCOc2cc3ccccn3n2)CC1 [Example 27, 1′-(4-(pyrazolo[1,5-a]pyridin-2-yloxy)butyl)-3H-spiro[isobenzofuran-1,4′-piperidine] oxalate], the Ki falls from 23.3 nM to 9.1 nM (2.6-fold).

Going from c1ccn2nc(COCCCCN3CCN(C4CCCCC4)CC3)cc2c1 [Example 10, 2-((4-(4-cyclohexylpiperazin-1-yl)butoxy)methyl)pyrazolo[1,5-a]pyridine maleate] to c1ccn2nc(OCCCCN3CCN(C4CCCCC4)CC3)cc2c1 [Example 28, 2-(4-(4-cyclohexylpiperazin-1-yl)butoxy)pyrazolo[1,5-a]pyridine], the Ki falls from 75.4 nM to 19.9 nM (3.8-fold).

CN(CCCCOc1cc2ccccn2n1)C1CCN(Cc2ccccc2)CC1 [Example 12, 1-benzyl-N-methyl-N-(4-(pyrazolo[1,5-a]pyridin-2-yloxy)butyl)piperidin-4-amine difumarate] and CN(CCOc1cc2ccccn2n1)C1CCN(Cc2ccccc2)CC1 [Example 41, 1-benzyl-N-methyl-N-(2-(pyrazolo[1,5-a]pyridin-2-yloxy)ethyl)piperidin-4-amine dimaleate] are within 1.5-fold of each other in Ki: 19.5 nM for the first, 14.7 nM for the second.

First: c1ccn2nc(OCCCCN3CCOCC3)cc2c1 [Example 17, 4-(4-(pyrazolo[1,5-a]pyridin-2-yloxy)butyl)morpholine oxalate]
Second: c1ccn2nc(OCCCCN3CCCC3)cc2c1 [Example 20, 2-(4-(pyrrolidin-1-yl)butoxy)pyrazolo[1,5-a]pyridine oxalate]
The Ki of the first is 2.3-fold higher: 118 nM for the first, 50.7 nM for the second. The second binds more tightly here.

Going from c1ccn2nc(OCCCCN3CCCCC3)cc2c1 [Example 18, 2-(4-(piperidin-1-yl)butoxy)pyrazolo[1,5-a]pyridine oxalate] to c1ccn2nc(OCCCCN3CCCCCC3)cc2c1 [Example 49, 2-(4-(azepan-1-yl)butoxy)pyrazolo[1,5-a]pyridine maleate], the Ki falls from 14.7 nM to 7 nM (2.1-fold).

First: CCN(CC)CCCCOc1cc2ccccn2n1 [Example 19, N,N-diethyl-4-(pyrazolo[1,5-a]pyridin-2-yloxy)butan-1-amine oxalate]
Second: CCCN(CCOc1cc2ccccn2n1)CC1CC1 [Example 43, N-(cyclopropylmethyl)-N-(2-(pyrazolo[1,5-a]pyridin-2-yloxy)ethyl)propan-1-amine maleate]
The Ki of the first is 2.7-fold higher: 74.9 nM for the first, 28.1 nM for the second.

First: c1ccc(C2CCN(CCCCOc3cc4ccccn4n3)CC2)cc1 [Example 21, 2-(4-(4-phenylpiperidin-1-yl)butoxy)pyrazolo[1,5-a]pyridine oxalate]
Second: c1ccc(OC2CCN(CCCCOc3cc4ccccn4n3)CC2)cc1 [Example 23, 2,(4-(4-phenoxypiperidin-1-yl)butoxy)pyrazolo[1,5-a]pyridine oxalate]
The Ki of the first is 7.9-fold lower: 3.8 nM for the first, 30.1 nM for the second.

CN(CCCCOc1cc2ccccn2n1)Cc1ccccc1 [Example 22, N-benzyl-N-methyl-4-(pyrazolo[1,5-a]pyridin-2-yloxy)butan-1-amine oxalate] and CN(CCOc1cc2ccccn2n1)Cc1ccccc1 [Example 24, N-benzyl-N-methyl-2-(pyrazolo[1,5-a]pyridin-2-yloxy)ethanamine oxalate] are within 1.5-fold of each other in Ki: 3.6 nM for the first, 4.5 nM for the second.

Going from c1ccc(N2CCN(CCCCOc3cc4ccccn4n3)CC2)cc1 [Example 25, 2-(4-(4-phenylpiperazin-1-yl)butoxy)pyrazolo[1,5-a]pyridine oxalate] to c1ccc2cc(C3CCN(CCCCOc4cc5ccccn5n4)CC3)ccc2c1 [Example 26, 2-(4-(4-(naphthalen-2-yl)piperidin-1-yl)butoxy)pyrazolo[1,5-a]pyridine], the Ki falls from 19.6 nM to 11 nM (1.8-fold). The second binds more tightly here.

c1ccn2nc(OCCCCN3CCN(C4CCCCC4)CC3)cc2c1 [Example 29, 2-(4-(4-cyclohexylpiperazin-1-yl)butoxy)pyrazolo[1,5-a]pyridine dimaleate] and c1ccn2nc(OCCN3CCN(C4CCCCC4)CC3)cc2c1 [Example 47, 2-(2-(4-cyclohexylpiperazin-1-yl)ethoxy)pyrazolo[1,5-a]pyridine dimaleate] are within 1.5-fold of each other in Ki: 11.3 nM for the first, 14.1 nM for the second.

Going from CN(CCCCOc1cc2ccccn2n1)CCc1ccccc1 [Example 31, N-methyl-N-phenethyl-4-(pyrazolo[1,5-a]pyridin-2-yloxy)butan-1-amine hydrochloride] to CN(CCOc1cc2ccccn2n1)CCc1ccccc1 [Example 40, N-methyl-N-phenethyl-2-(pyrazolo[1,5-a]pyridin-2-yloxy)ethanamine maleate], the Ki rises from 21 nM to 41.1 nM (2-fold). The first binds more tightly here.

CN(CCCCOc1cc2ccccn2n1)Cc1ccncc1 [Example 32, N-methyl-4-(pyrazolo[1,5-a]pyridin-2-yloxy)-N-(pyridin-4-ylmethyl)butan-1-amine dihydrochloride] and c1ccn2nc(OCCCCNC3CCCCC3)cc2c1 [Example 50, N-(4-(pyrazolo[1,5-a]pyridin-2-yloxy)butyl)cyclohexanamine maleate] are within 1.5-fold of each other in Ki: 14.5 nM for the first, 9.7 nM for the second.

c1ccn2nc(OCCCCN3CCC4CCCCC4C3)cc2c1 (stereo not drawn) [Example 34, 2-(4-(pyrazolo[1,5-a]pyridin-2-yloxy)butyl)decahydroisoquinoline fumarate] and c1ccn2nc(OCCCCN3CC[C@H]4CCCC[C@@H]4C3)cc2c1 [Example 51, (4aR,8aS)-2-(4-(pyrazolo[1,5-a]pyridin-2-yloxy)butyl)decahydroisoquinoline maleate] are within 1.5-fold of each other in Ki: 5.7 nM for the first, 8.3 nM for the second.

Going from CC(C)(C)C1CCN(CCOc2cc3ccccn3n2)CC1 [Example 39, 2-(2-(4-tert-butylpiperidin-1-yl)ethoxy)pyrazolo[1,5-a]pyridine maleate] to c1ccn2nc(OCCN3CCC4CCCCC4C3)cc2c1 (stereo not drawn) [Example 42, 2-(2-(pyrazolo[1,5-a]pyridin-2-yloxy)ethyl)decahydroisoquinoline maleate], the Ki falls from 6.35 nM to 3.6 nM (1.8-fold). The second binds more tightly here.

First: c1ccc2c(c1)COC21CCN(CCOc2cc3ccccn3n2)CC1 [Example 48, 1′-(2-(pyrazolo[1,5-a]pyridin-2-yloxy)ethyl)-3H-spiro[isobenzofuran-1,4′-piperidine] dimaleate]
Second: c1c(OCCN2CCCCCC2)nn2c1CCCC2 [Example 53, 2-(2-(azepan-1-yl)ethoxy)-4,5,6,7-tetrahydropyrazolo[1,5-a]pyridine maleate]
The Ki of the first is 1.6-fold lower: 15.8 nM for the first, 25.9 nM for the second.

c1c(OCCCCN2CCOCC2)nn2c1CCCC2 [Example 56, 4-(4-(4,5,6,7-tetrahydropyrazolo[1,5-a]pyridin-2-yloxy)butyl)morpholine oxalate] and c1c(OCCCCN2CCCC2)nn2c1CCCC2 [Example 59, 2-(4-(pyrrolidin-1-yl)butoxy)-4,5,6,7-tetrahydropyrazolo[1,5-a]pyridine oxalate] are within 1.5-fold of each other in Ki: 181 nM for the first, 167 nM for the second.
